According to ChEMBL document CHEMBL5370661, “Development of Fluorescent AF64394 Analogues Enables Real-Time Binding Studies for the Orphan Class A GPCR GPR3” (J Med Chem, 2023):
Activity calls are given as the source filed them. The calls are words filed in the database; no cut-off is given here.

Experiments:
[1] = target: T1, G-protein coupled receptor 3 (Homo sapiens, UniProt P46089); test: Binding affinity to N-terminal 3xHA/Nluc-tagged full-length wild-type human GPR3 expressed in HEK293A cells using vivazine as substrate measured for 180 mins by time-course saturation based NanoBRET assay; assay type: cell-based; settings: for Activity: HEK293-A
T1 sequence (P46089 whole entry): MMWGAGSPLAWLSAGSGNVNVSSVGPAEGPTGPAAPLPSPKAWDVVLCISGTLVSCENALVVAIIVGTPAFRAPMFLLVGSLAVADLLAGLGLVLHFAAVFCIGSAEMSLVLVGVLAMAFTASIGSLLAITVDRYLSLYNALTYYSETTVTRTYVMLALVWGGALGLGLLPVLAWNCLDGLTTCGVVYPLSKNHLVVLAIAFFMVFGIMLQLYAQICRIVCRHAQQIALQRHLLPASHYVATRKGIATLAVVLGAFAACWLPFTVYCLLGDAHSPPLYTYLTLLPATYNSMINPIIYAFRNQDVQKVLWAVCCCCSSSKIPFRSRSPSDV

[2] = target: T1, G-protein coupled receptor 3; test: Total binding affinity to N-terminal 3xHA/Nluc-tagged full-length wild-type human GPR3 expressed in HEK293A cells using furimazine as substrate measured for 3 hrs by NanoBRET assay; assay type: cell-based, HEK293-A
[3] = Chemical stability of compound in DMSO assessed as compound degradation incubated for 104 days by RP-HPLC analysis; assay type: physicochemical; settings: 2496 h; time 104 day
[4] = target: T1, G-protein coupled receptor 3; test: Binding affinity to N-terminal 3xHA/Nluc-tagged full-length wild-type human GPR3 expressed in HEK293A cells using vivazine as substrate by time-course saturation based NanoBRET assay; assay type: cell-based; settings: HEK293-A, time 180.0 min, TDE = time-dependent effect
[5] = target: T1, G-protein coupled receptor 3; test: Binding affinity to N-terminal 3xHA/Nluc-tagged full-length wild-type human GPR3 expressed in HEK293A cells using vivazine as substrate at <=30 uM measured for 180 mins by time-course saturation based NanoBRET assay; assay type: cell-based; settings: HEK293-A
[6] = tested on: G-protein coupled receptor 3 (Homo sapiens), P46089 [V186W,V187W,Y188W]; test: Binding affinity to Nluc-tagged GPR3 V186W/V187W/Y188W mutant (unknown origin) expressed in HEK293A cells assessed as decrease in cAMP level by biosensor based FRET assay; assay type: cell-based; settings: HEK293-A
Chain of G-protein coupled receptor 3 (Homo sapiens), P46089 [V186W,V187W,Y188W] (P46089 whole entry V186W/V187W/Y188W): as the sequence (P46089 whole entry) above, with V186W, V187W, Y188W counted along it

[7] = target: T1, G-protein coupled receptor 3; test: Inverse agonist activity at N-terminal 3xHA/Nluc-tagged full-length wild-type human GPR3 expressed in HEK293A cells co-expressing Fluc-tagged CRE assessed as reduction in CRE gene expression at 10 uM incubated for 24 hrs by luciferase based assay; assay type: functional, cell-based; settings: HEK293-A, filed as inverse agonist
[8] = target: T1, G-protein coupled receptor 3; test: Binding affinity to N-terminal 3xHA/Nluc-tagged full-length wild-type human GPR3 expressed in HEK293A cells using vivazine as substrate at 20 to 30 uM measured for 180 mins by time-course saturation based NanoBRET assay; assay type: cell-based; settings: HEK293-A, dose 20-30 µM
[9] = Chemical stability of compound in aqueous solution assessed as compound degradation incubated for 104 days by RP-HPLC analysis; assay type: physicochemical; settings: buffer, 2496 h; time 104 day
[10] = target: T1, G-protein coupled receptor 3; test: Binding affinity to N-terminal 3xHA/Nluc-tagged full-length wild-type human GPR3 expressed in HEK293A cells assessed as increase in BRET ratio incubated for 180 mins by NanoBRET assay; assay type: cell-based; settings: HEK293-A
[11] = tested on: G-protein coupled receptor 3 (Homo sapiens), P46089 [Y188W]; test: Binding affinity to Nluc-tagged GPR3 Y188W mutant (unknown origin) expressed in HEK293A cells assessed as decrease in cAMP level by biosensor based FRET assay; assay type: cell-based; settings: HEK293-A, filed as modulator
Chain of G-protein coupled receptor 3 (Homo sapiens), P46089 [Y188W] (P46089 whole entry Y188W): as the sequence (P46089 whole entry) above, with Y188W counted along it

[12] = tested on: HEK293-A; test: Downregulation of CRE gene activity in HEK293-A cells expressing GPR12 incubated for 24 hrs by luciferase based assay; assay type: functional, cell-based; settings: Homo sapiens
[13] = tested on: HEK293-A; test: Binding affinity to Nluc-tagged GPR3 T279A/Y280A mutant (unknown origin) expressed in HEK293A cells assessed as decrease in cAMP level by biosensor based FRET assay; assay type: cell-based; settings: Homo sapiens, filed as modulator
[14] = target: T1, G-protein coupled receptor 3; test: Modulation of N-terminal 3xHA/Nluc-tagged full-length wild-type human GPR3 expressed in HEK293A cells using furimazine as substrate at 1 uM measured for 3 hrs in presence of DPI by NanoBRET assay; assay type: cell-based, HEK293-A
[15] = target: T1, G-protein coupled receptor 3; test: Competitive total binding affinity to N-terminal 3xHA/Nluc-tagged full-length wild-type human GPR3 expressed in HEK293A cells using furimazine as substrate at 1 uM measured for 3 hrs in presence of AF64394 by NanoBRET assay; assay type: cell-based, HEK293-A
[16] = target: T1, G-protein coupled receptor 3; test: Specific binding affinity to N-terminal 3xHA/Nluc-tagged full-length wild-type human GPR3 expressed in HEK293A cells using furimazine as substrate measured for 3 hrs by NanoBRET assay; assay type: cell-based, HEK293-A
[17] = target: T2, G-protein coupled receptor 6 (Homo sapiens, UniProt P46095); test: Specific binding affinity to full-length wild-type human brain GPR6 expressed in HEK293A cells using furimazine as substrate measured for 3 hrs by NanoBRET assay; assay type: cell-based, HEK293-A
T2 sequence (P46095 whole entry): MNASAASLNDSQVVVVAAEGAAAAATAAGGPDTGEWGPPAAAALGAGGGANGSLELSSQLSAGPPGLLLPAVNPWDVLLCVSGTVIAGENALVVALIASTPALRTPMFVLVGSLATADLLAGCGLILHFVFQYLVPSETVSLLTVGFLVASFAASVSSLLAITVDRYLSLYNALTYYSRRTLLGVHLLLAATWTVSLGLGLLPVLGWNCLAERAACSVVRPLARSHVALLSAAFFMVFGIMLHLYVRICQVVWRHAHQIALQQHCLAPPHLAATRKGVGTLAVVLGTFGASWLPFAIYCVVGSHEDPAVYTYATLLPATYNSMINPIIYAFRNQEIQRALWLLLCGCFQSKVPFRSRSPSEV

[18] = tested on: G-protein coupled receptor 3 (Homo sapiens), P46089 [V187W,Y188W]; test: Binding affinity to Nluc-tagged GPR3 V187W/Y188W mutant (unknown origin) expressed in HEK293A cells assessed as decrease in cAMP level by biosensor based FRET assay; assay type: cell-based; settings: HEK293-A, filed as modulator
Chain of G-protein coupled receptor 3 (Homo sapiens), P46089 [V187W,Y188W] (P46089 whole entry V187W/Y188W): as the sequence (P46089 whole entry) above, with V187W, Y188W counted along it

[19] = target: T2, G-protein coupled receptor 6; test: Competitive total binding affinity to full-length wild-type human brain GPR6 expressed in HEK293A cells using furimazine as substrate at 1 uM measured for 3 hrs in presence of CVN424 by NanoBRET assay; assay type: cell-based, HEK293-A
[20] = Specific binding affinity to N-terminal 3xHA/Nluc-tagged full-length wild-type human GPR12 expressed in HEK293A cells using furimazine as substrate measured for 3 hrs by NanoBRET assay; assay type: cell-based; settings: hek293-a
[21] = tested on: HEK293-A; test: Downregulation of CRE gene activity in HEK293-A cells expressing GPR6 incubated for 24 hrs by luciferase based assay; assay type: functional, cell-based; settings: Homo sapiens
[22] = target: T1, G-protein coupled receptor 3; test: Binding affinity to N-terminal 3xHA/Nluc-tagged full-length wild-type human GPR3 expressed in HEK293A cells using vivazine as substrate assessed as increase in BRET ratio by time-course saturation based NanoBRET assay; assay type: cell-based; settings: HEK293-A, filed as modulator
[23] = target: T1, G-protein coupled receptor 3; test: Binding affinity to N-terminal 3xHA/Nluc-tagged full-length wild-type human GPR3 expressed in HEK293A cells using vivazine as substrate at <10 uM measured for 180 mins by time-course saturation based NanoBRET assay; assay type: cell-based; settings: HEK293-A

Row | SMILES | Activity [1] | EC50 [2] [nM] | Activity [4] | Activity [5] | further results
1 | COCC[N+]1=C(/C=C/C=C2/N(CCCCCC(=O)NCCOCCOCCOCCOc3ccc(-c4cc(NCc5ccc(Cl)cc5OC(C)C)n5ncnc5n4)cc3)c3ccc(S(=O)(=O)O)cc3C2(C)CCCS(=O)(=O)O)C(C)(CCCS(=O)(=O)O)c2cc(S(=O)(=O)[O-])ccc21 (configuration not stated) | inactive | > 31600 | – | – | –
2 | COCC[N+]1=C(/C=C/C=C2/N(CCCCCC(=O)NCCOCCOCCOCCOCCOCCOc3ccccc3-c3cc(NCc4ccc(Cl)cc4OC(C)C)n4ncnc4n3)c3ccc(S(=O)(=O)O)cc3C2(C)CCCS(=O)(=O)O)C(C)(CCCS(=O)(=O)O)c2cc(S(=O)(=O)[O-])ccc21 (configuration not stated) | inactive | > 31600 | – | – | –
3 | CC(C)Oc1cc(Cl)ccc1CNc1cc(-c2cccc(OCCCCCCNC(=O)c3ccc(-c4c5ccc(N(C)C)cc5[o+]c5cc(N(C)C)ccc45)c(C(=O)[O-])c3)c2)nc2ncnn12 | Dose-Dependent Effect | 4470 | Tde | Active | Stability [3]: Stable
4 | CC(C)Oc1cc(Cl)ccc1CNc1cc(-c2cc(F)ccc2Cl)nc2ncnn12 | – | – | – | – | Activity [6]: inactive; Activity [7]: Active
5 | COCC[N+]1=C(/C=C/C=C2/N(CCCCCC(=O)NCCOCCOCCOCCOc3cccc(-c4cc(NCc5ccc(Cl)cc5OC(C)C)n5ncnc5n4)c3)c3ccc(S(=O)(=O)O)cc3C2(C)CCCS(=O)(=O)O)C(C)(CCCS(=O)(=O)O)c2cc(S(=O)(=O)[O-])ccc21 (configuration not stated) | inactive | > 31600 | – | – | –
6 | CC(C)Oc1cc(Cl)ccc1CNc1cc(-c2ccccc2OCCOCCOCCOCCNC(=O)c2ccc(-c3c4ccc(N(C)C)cc4[o+]c4cc(N(C)C)ccc34)c(C(=O)[O-])c2)nc2ncnn12 | Dose-Dependent Effect | 3390 | Tde | Active | Activity [8]: inactive; Stability [9]: Stable
7 | CN(C)c1ccc2c(-c3ccc(C(=O)NCCCC(=O)Nc4ccc(CCN5CN(c6ccccc6)C6(CCN(CCCC(=O)c7ccc(F)cc7)CC6)C5=O)cc4)cc3C(=O)[O-])c3ccc(N(C)C)cc3[o+]c2c1 | – | – | – | – | Activity [10]: inactive
8 | CC(C)Oc1cc(Cl)ccc1CNc1cc(-c2ccccc2OCCCCCCNC(=O)c2ccc(-c3c4ccc(N(C)C)cc4[o+]c4cc(N(C)C)ccc34)c(C(=O)[O-])c2)nc2ncnn12 | – | 891 | – | – | Activity [11]: Active; Kd [1]: 102 nM; Activity ([1]; filed as modulator): Dose-Dependent Effect; Activity ([6]; filed as modulator): Active; Activity [12]: Active; Activity [13]: Active; EC50 [14]: 1410 nM; IC50 [15]: 1260 nM; Ki [15]: 295 nM; Activity [7]: Active; Kd [16]: 302 nM; Kd [17]: 66.1 nM; Activity [18]: Active; IC50 [19]: 214 nM; Ki [19]: 13.2 nM; pKd [20]: 7.12; Activity [21]: Active; Activity ([4]; filed as modulator): Tde; Activity ([5]; filed as modulator): Active; Activity [22]: Dose-Dependent Effect
9 | CC(C)Oc1cc(Cl)ccc1CNc1cc(-c2cccc(OCCOCCOCCOCCNC(=O)c3ccc(-c4c5ccc(N(C)C)cc5[o+]c5cc(N(C)C)ccc45)c(C(=O)[O-])c3)c2)nc2ncnn12 | Dose-Dependent Effect | > 10000 | Tde | Active | Activity [23]: inactive
10 | CC(C)Oc1cc(Cl)ccc1CNc1cc(-c2ccc(OCCOCCOCCOCCNC(=O)c3ccc(-c4c5ccc(N(C)C)cc5[o+]c5cc(N(C)C)ccc45)c(C(=O)[O-])c3)cc2)nc2ncnn12 | Dose-Dependent Effect | > 10000 | Tde | Active | Activity [23]: inactive
11 | CC(C)Oc1cc(Cl)ccc1CNc1cc(-c2ccc(OCCCCCCNC(=O)c3ccc(-c4c5ccc(N(C)C)cc5[o+]c5cc(N(C)C)ccc45)c(C(=O)[O-])c3)cc2)nc2ncnn12 | Dose-Dependent Effect | 11200 | Tde | Active | –
12 | CC(C)Oc1cc(Cl)ccc1CNc1cc(-c2ccccc2OCCOCCOCCOCCNC(=O)CCCCCN2/C(=C/C=C/C3=[N+](CCOO)c4ccc(S(=O)(=O)O)cc4C3(C)CCCS(=O)(=O)[O-])C(C)(CCCS(=O)(=O)O)c3cc(S(=O)(=O)O)ccc32)nc2ncnn12 (configuration not stated) | inactive | > 31600 | – | – | –
13 | CC(C)Oc1cc(Cl)ccc1CNc1cc(-c2ccccc2OCCOCCOCCOCCOCCOCCNC(=O)c2ccc(-c3c4ccc(N(C)C)cc4[o+]c4cc(N(C)C)ccc34)c(C(=O)[O-])c2)nc2ncnn12 | Dose-Dependent Effect | 4470 | Tde | Active | Activity [8]: inactive
